Reference: US20260184675A1, “CHIRAL ISOMERIC SULFITE COMPOUND AND APPLICATION THEREOF” (Chengdu Hanova BioSciences Co., Ltd, priority 2024, published 2026)

Experiments:
Magnaporthe grisea = format: cell-based; details: 100 ppm; for Antifungal rate of Magnaporthe grisea (%), Replicate 1 / Antifungal rate of Magnaporthe grisea (%), Replicate 2 / Antifungal rate of Magnaporthe grisea (%), Replicate 3 / Average antifungal rate (%): 96-well plate; for Average antifungal rate (%): average of 3 replicates
[1] = tested on: eggs of Harmonia axyridis; assay: Effect on hatching of eggs of Harmonia axyridis, egg card immersion; format: in vivo; details: 100 ppm; for Number of hatched larvae 4 days after insecticide delivery, Replicate 1 / Number of hatched larvae 4 days after insecticide delivery, Replicate 2 / Number of hatched larvae 4 days after insecticide delivery, Replicate 3: Harmonia axyridis egg cards, immersed 30 seconds; for Hatching rate (%), Replicate 1 / Hatching rate (%), Replicate 2 / Hatching rate (%), Replicate 3: Harmonia axyridis eggs, 4 days after delivery
Method in brief: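 Egg cards (~20 eggs each) dipped 30 s in 100 ppm insecticide, air dried and kept moist at 27° C; 5 cards per treatment, 3 replicates. Hatching assessed 4 days after treatment against pre-treatment egg counts, and control effect calculated by formula.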

eggs of Aleyrodidae = assay: Effect on hatching of eggs of Aleyrodidae, leaf disc method; format: in vivo; details: 10 ppm; for Hatching rate (%), Replicate 1 / Hatching rate (%), Replicate 2 / Hatching rate (%), Replicate 3 / Number of hatched larvae 5 days after insecticide delivery, Replicate 1 / Number of hatched larvae 5 days after insecticide delivery, Replicate 2 / Number of hatched larvae 5 days after insecticide delivery, Replicate 3: Aleyrodidae eggs; for Hatching rate (%), Replicate 1 / Hatching rate (%), Replicate 2 / Hatching rate (%), Replicate 3: 5 days after delivery; for Number of hatched larvae 5 days after insecticide delivery, Replicate 1 / Number of hatched larvae 5 days after insecticide delivery, Replicate 2 / Number of hatched larvae 5 days after insecticide delivery, Replicate 3: leaf disc
Method in brief: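 Inhibition of Aleyrodidae egg hatching was tested with a leaf disc method at 10 ppm. Egg numbers on each disc were counted under a microscope before treatment. Discs bearing eggs were soaked for 10 seconds in clear water or test solution, removed, and kept under moist conditions. Hatching was checked five days after insecticide delivery and hatched larvae were counted.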

[2] = tested on: pest eggs of Tetranychus cinnabarinus; assay: Effect on hatching of pest eggs of Tetranychus cinnabarinus, leaf disc method; format: in vivo; details: for Hatching rate (%): 7 days after insecticide delivery; for inhibitory effect on the hatching of pest eggs of Tetranychus cinnabarinus (in words): 1 ppm
Method in brief: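 Adult female mites laid eggs on 2.0 cm Vicia faba leaf discs for up to 36 h; discs with counted eggs were dipped 10 s in compound solution or water, then kept moist. Hatched eggs were counted 7 days after treatment and control effect was calculated by formula.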

SMILES	inhibitory rate against Magnaporthe grisea (in words) (Magnaporthe grisea)	Antifungal rate of Magnaporthe grisea (%), Replicate 1 (Magnaporthe grisea) [%]	Antifungal rate of Magnaporthe grisea (%), Replicate 2 (Magnaporthe grisea) [%]	Antifungal rate of Magnaporthe grisea (%), Replicate 3 (Magnaporthe grisea) [%]	inhibitory activity on the hatching of eggs of Harmonia axyridis (in words) [1]	inhibitory activity on the hatching of eggs of Aleyrodidae (in words) (eggs of Aleyrodidae)	Hatching rate (%), Replicate 1 (eggs of Aleyrodidae) [%]	Hatching rate (%), Replicate 2 (eggs of Aleyrodidae) [%]	Hatching rate (%), Replicate 3 (eggs of Aleyrodidae) [%]	Number of hatched larvae 5 days after insecticide delivery, Replicate 1 (eggs of Aleyrodidae)	Number of hatched larvae 5 days after insecticide delivery, Replicate 2 (eggs of Aleyrodidae)	Number of hatched larvae 5 days after insecticide delivery, Replicate 3 (eggs of Aleyrodidae)	Hatching rate (%) ([2]; 0.25 mg/L, Replicate 1)	Hatching rate (%) ([2]; 0.25 mg/L, Replicate 2)	Number of hatched larvae 7 days after insecticide delivery ([2]; 0.25 mg/L, Replicate 1)	Number of hatched larvae 7 days after insecticide delivery ([2]; 0.25 mg/L, Replicate 2)	Hatching rate (%) ([2]; 0.5 mg/L, Replicate 1)	Hatching rate (%) ([2]; 0.5 mg/L, Replicate 2)	Number of hatched larvae 7 days after insecticide delivery ([2]; 0.5 mg/L, Replicate 1)	Number of hatched larvae 7 days after insecticide delivery ([2]; 0.5 mg/L, Replicate 2)	other results
CCC(COS(=O)OCCF)Oc1ccc(Cl)cc1Cl [19′-(R,R)]	strong inhibitory rate	96.97	97.35	97.26	strong inhibitory activities	strong inhibitory activities	0.00	0.00	0.00	0	0	0	45.07	44.90	39	27	5.77	4.48	49	64	Number of hatched larvae 4 days after insecticide delivery, Replicate 1 ([1]; listed as 19′-(R, R)): 0; Number of hatched larvae 4 days after insecticide delivery, Replicate 2 ([1]; listed as 19′-(R, R)): 0; Number of hatched larvae 4 days after insecticide delivery, Replicate 3 ([1]; listed as 19′-(R, R)): 0; Hatching rate (%), Replicate 1 ([1]; listed as 19′-(R, R)): 0.00%; Hatching rate (%), Replicate 2 ([1]; listed as 19′-(R, R)): 0.00%; Hatching rate (%), Replicate 3 ([1]; listed as 19′-(R, R)): 0.00%; Hatching rate (%) ([2]; 1 mg/L, Replicate 1): 0.00%; Hatching rate (%) ([2]; 1 mg/L, Replicate 2): 0.00%; Number of hatched larvae 7 days after insecticide delivery ([2]; 1 mg/L, Replicate 1): 57; Number of hatched larvae 7 days after insecticide delivery ([2]; 1 mg/L, Replicate 2): 69; inhibitory effect on the hatching of pest eggs of Tetranychus cinnabarinus (in words) [2]: excellent inhibitory effects
CC(COc1ccc(Cl)cc1Cl)OS(=O)OCCF [1′-(R,R)]	strong inhibitory rate	84.82	83.06	86.71									69.57	82.22	14	8	36.84	36.51	36	40	Average antifungal rate (%) (Magnaporthe grisea): 84.86%; Number of hatched larvae 4 days after insecticide delivery, Replicate 1 ([1]; listed as 1′-(R, R)): 15; Number of hatched larvae 4 days after insecticide delivery, Replicate 2 ([1]; listed as 1′-(R, R)): 16; Number of hatched larvae 4 days after insecticide delivery, Replicate 3 ([1]; listed as 1′-(R, R)): 18; Hatching rate (%), Replicate 1 ([1]; listed as 1′-(R, R)): 17.05%; Hatching rate (%), Replicate 2 ([1]; listed as 1′-(R, R)): 16.84%; Hatching rate (%), Replicate 3 ([1]; listed as 1′-(R, R)): 16.22%; Hatching rate (%), Replicate 1 (eggs of Aleyrodidae; listed as 1′-(R, R)): 13.95%; Hatching rate (%), Replicate 2 (eggs of Aleyrodidae; listed as 1′-(R, R)): 15.38%; Hatching rate (%), Replicate 3 (eggs of Aleyrodidae; listed as 1′-(R, R)): 13.21%; Number of hatched larvae 5 days after insecticide delivery, Replicate 1 (eggs of Aleyrodidae; listed as 1′-(R, R)): 18; Number of hatched larvae 5 days after insecticide delivery, Replicate 2 (eggs of Aleyrodidae; listed as 1′-(R, R)): 14; Number of hatched larvae 5 days after insecticide delivery, Replicate 3 (eggs of Aleyrodidae; listed as 1′-(R, R)): 14; Hatching rate (%) ([2]; 1 mg/L, Replicate 1): 25.37%; Hatching rate (%) ([2]; 1 mg/L, Replicate 2): 8.00%; Number of hatched larvae 7 days after insecticide delivery ([2]; 1 mg/L, Replicate 1): 50; Number of hatched larvae 7 days after insecticide delivery ([2]; 1 mg/L, Replicate 2): 69
CC(COc1ccc(Cl)cc1Cl)OS(=O)OCCF (stereo not drawn) [Compound 1′]	strong inhibitory rate	95.78	98.76	88.30	strong inhibitory activities	strong inhibitory activities	1.87	0.00	1.14	2	0	1	69.81	70.83	16	21	36.24	31.11	42	31	Average antifungal rate (%) (Magnaporthe grisea): 94.28%; Number of hatched larvae 4 days after insecticide delivery, Replicate 1 [1]: 6; Number of hatched larvae 4 days after insecticide delivery, Replicate 2 [1]: 4; Number of hatched larvae 4 days after insecticide delivery, Replicate 3 [1]: 7; Hatching rate (%), Replicate 1 [1]: 5.88%; Hatching rate (%), Replicate 2 [1]: 4.17%; Hatching rate (%), Replicate 3 [1]: 6.60%; Hatching rate (%) ([2]; 1 mg/L, Replicate 1): 0.00%; Hatching rate (%) ([2]; 1 mg/L, Replicate 2): 1.69%; Number of hatched larvae 7 days after insecticide delivery ([2]; 1 mg/L, Replicate 1): 47; Number of hatched larvae 7 days after insecticide delivery ([2]; 1 mg/L, Replicate 2): 58; inhibitory effect on the hatching of pest eggs of Tetranychus cinnabarinus (in words) [2]: excellent inhibitory effects
CCC(COS(=O)OCCF)Oc1ccc(Cl)cc1Cl (stereo not drawn) [Compound 19′]	strong inhibitory rate	91.33	93.48	92.95	strong inhibitory activities	strong inhibitory activities	0.00	0.00	0.00	0	0	0	70.21	73.24	14	19	34.72	34.43	47	40	Average antifungal rate (%) (Magnaporthe grisea): 92.59%; Number of hatched larvae 4 days after insecticide delivery, Replicate 1 [1]: 4; Number of hatched larvae 4 days after insecticide delivery, Replicate 2 [1]: 5; Number of hatched larvae 4 days after insecticide delivery, Replicate 3 [1]: 7; Hatching rate (%), Replicate 1 [1]: 4.49%; Hatching rate (%), Replicate 2 [1]: 5.21%; Hatching rate (%), Replicate 3 [1]: 6.48%; Hatching rate (%) ([2]; 1 mg/L, Replicate 1): 1.89%; Hatching rate (%) ([2]; 1 mg/L, Replicate 2): 0.00%; Number of hatched larvae 7 days after insecticide delivery ([2]; 1 mg/L, Replicate 1): 52; Number of hatched larvae 7 days after insecticide delivery ([2]; 1 mg/L, Replicate 2): 63; inhibitory effect on the hatching of pest eggs of Tetranychus cinnabarinus (in words) [2]: excellent inhibitory effects
CC(C)(COc1ccc(Cl)cc1Cl)OS(=O)OCCF (stereo not drawn) [Compound 10]	strong inhibitory rate	93.89	94.52	94.36	strong inhibitory activities	strong inhibitory activities	0.76	0.00	1.61	1	0	2									Average antifungal rate (%) (Magnaporthe grisea): 94.26%; Number of hatched larvae 4 days after insecticide delivery, Replicate 1 [1]: 4; Number of hatched larvae 4 days after insecticide delivery, Replicate 2 [1]: 3; Number of hatched larvae 4 days after insecticide delivery, Replicate 3 [1]: 7; Hatching rate (%), Replicate 1 [1]: 4.04%; Hatching rate (%), Replicate 2 [1]: 3.85%; Hatching rate (%), Replicate 3 [1]: 5.56%; inhibitory effect on the hatching of pest eggs of Tetranychus cinnabarinus (in words) [2]: excellent inhibitory effects
